From patent US20250101039A1, “RIFAMYCIN DERIVATIVES FOR THE TREATMENT OF DISEASES” (priority 2022, published 2025)
Converted amounts (≈) assume the structure as drawn. “And” between values parts separate entries of the source, which are not always exact repeats. Equal values may be shown once.

What was measured:
A. baumannii = test: MIC by broth microdilution, A. baumannii (WT); format: cell-based, Acinetobacter baumannii
[1] = tested on: Enterococcus faecium (strain NCTC 12204); test: MIC by broth microdilution, E. faecium; format: cell-based; conditions: strain NCTC 12204, cation adjusted Mueller Hinton broth
[2] = tested on: Enterococcus faecalis (strain ATCC 51575); test: MIC by broth microdilution, E. faecalis; format: cell-based; conditions: strain ATCC 51575, cation adjusted Mueller Hinton broth
[3] = tested on: Staphylococcus epidermidis (strain ATCC 12228); test: MIC by broth microdilution, S. epidermidis; format: cell-based; conditions: strain ATCC 12228, cation adjusted Mueller Hinton broth
[4] = tested on: S. pneumoniae (strain ATCC 49619); test: MIC by broth microdilution, S. pneumoniae; format: cell-based, Streptococcus pneumoniae; conditions: strain ATCC 49619, cation adjusted Mueller Hinton broth + 5% laked horse blood
[5] = tested on: S. pyogenes (strain IHMA 1117021); test: MIC by broth microdilution, S. pyogenes; format: cell-based, Streptococcus pyogenes; conditions: strain IHMA 1117021, cation adjusted Mueller Hinton broth + 5% laked horse blood
[6] = tested on: H. influenzae (strain ATCC 49247); test: MIC by broth microdilution, H. influenzae; format: cell-based, Hemophilus influenzae; conditions: strain ATCC 49247, Hemophilus test medium broth
[7] = tested on: M. abscessus (strain ATCC 19977); test: MIC by broth microdilution, M. abscessus; format: cell-based, Mycobacterium abscessus; conditions: strain ATCC 19977, Middlebrook 7H9 broth + ADC
[8] = tested on: M. tuberculosis (H37Rv strain ATCC 27294); format: cell-based, Mycobacterium tuberculosis
[9] = tested on: M. smegmatis (strain ATCC 700084); test: MIC, M. smegmatis (BacTiter-Glo); format: cell-based, Mycobacterium smegmatis; conditions: strain ATCC 700084, Middlebrook 7H9 + ADC, 90% growth inhibition, 20 hours
A. baumannii RpoB H535Q = test: microbe, parasite or virus in culture; format: cell-based, Acinetobacter baumannii
A. baumannii RpoB H535C = test: microbe, parasite or virus in culture; format: cell-based, Acinetobacter baumannii
A. baumannii RpoB H535L = test: microbe, parasite or virus in culture; format: cell-based, Acinetobacter baumannii
A. baumannii RpoB I581M = test: microbe, parasite or virus in culture; format: cell-based, Acinetobacter baumannii
[10] = tested on: A. baumannii RpoB H535Q/S521T; test: microbe, parasite or virus in culture; format: cell-based, Acinetobacter baumannii
A. baumannii RpoB S583L = test: microbe, parasite or virus in culture; format: cell-based, Acinetobacter baumannii
A. baumannii RpoB N527D = test: microbe, parasite or virus in culture; format: cell-based, Acinetobacter baumannii

In the case of `CO[C@H]1/C=C/O[C@@]2(C)Oc3c(C)c(O)c4c(c3C2=O)C2=NC3(NC2=C(NC(=O)/C(C)=C\C=C\[C@H](C)[C@H](O)[C@@H](C)[C@@H](O)[C@@H](C)[C@H](OC(C)=O)[C@@H]1C)C4=O)C1CC2CC3CN(C2)C1` (stereo partly drawn) [Compound 3B], the MIC A. baumannii (A. baumannii; RPMI medium supplemented with 10% FCS, 35° C. 20 hours) was < 2 ng/mL, the “A. baumannii MIC, WT” value (A. baumannii; Table 4, RPMI + FCS) was ≤2 ng/mL and the MIC E. faecium [1] was 0.03 µg/mL (≈ 0.0356 µM). The MIC E. faecalis [2] was 0.5 µg/mL (≈ 0.593 µM), the MIC S. epidermidis [3] was < 2 ng/mL and the MIC S. pneumoniae [4] was < 2 ng/mL. The MIC S. pyogenes [5] was < 2 ng/mL, the MIC H. influenzae [6] was 0.125 µg/mL (≈ 0.148 µM) and the MIC M. abscessus [7] was 8 µg/mL. For the same molecule, the MIC M. tuberculosis [8] was 0.01 µg/mL (≈ 0.0119 µM), the MIC M. smegmatis [9] was 0.65 µg/mL and the “A. baumannii MIC, RpoB H535Q” value (A. baumannii RpoB H535Q) was ≤2 ng/mL. The “A. baumannii MIC, RpoB H535C” value (A. baumannii RpoB H535C) was ≤2 ng/mL, the “A. baumannii MIC, RpoB H535L” value (A. baumannii RpoB H535L) was 0.016 mg/L and the “MIC, RpoB mutation I581M” value (A. baumannii RpoB I581M) was ≤2 ng/mL. The “MIC, RpoB mutation H535Q/S521T” value [10] was 1 mg/L and 0.5 mg/L, the “MIC, RpoB mutation S583L” value (A. baumannii RpoB S583L) was ≤2 ng/mL and the “MIC, RpoB mutation N527D” value (A. baumannii RpoB N527D) was ≤2 ng/mL.
